How the values were obtained:
[1] = Measurement of brain fraction unbound (equilibrium dialysis); type: in vitro ADME; conditions: pH 7.4, rat brain homogenate, 37° C., read-out: FU brain (%, rat)
Description: Measurement of Brain Fraction Unbound (Equilibrium Dialysis)
Brain fractions unbound were determined using equilibrium dialysis in a 96-well format as described in Kalvass and Maurer, 2002. Brain homogenates were prepared using 2 ml/g CSF surrogate (7.30 g/l NaCl, 186.4 mg/l KCl, 239.9 mg/l MgCl2, 185.2 mg/l CaCl2), and 536.0 mg/l Na2HPO4.7H2O, pH 7.4). Dialysis membranes (12-14-kDA cutoff) obtained from Spectrum Laboratories Inc. (Rancho Dominguez, Calif.) were conditioned in water (HPLC grade) for 60 min, followed by 20 min in 20% ethanol, and 15 min in CSF surrogate.
Assay compound concentrations were 5 μM. Diluted brain homogenate was spiked with the compound of interest, and 150-μl aliquots were loaded into the 96-well equilibrium dialysis apparatus and dialyzed against an equal volume of CSF surrogate. Equilibrium was achieved by incubating the 96-well equilibrium dialysis apparatus in a temperature-controlled incubator at 37° C. for 5 h, using an orbital shaker at 125 rpm. At the end of the incubation period, 50-μl aliquots of brain homogenate and buffer were transferred to a 96-well plate, and the composition in each tube was balanced with control fluid to equalize the brain and buffer volumes. Sample extraction was performed by addition of 400 μl of acetonitrile containing internal standard (rolipram). The samples were then vortex-mixed and centrifuged, and 100 μl of supernatants was transferred into a 96-well plate, diluted with 200 μl of 16% acetonitrile/water, and analyzed by liquid chromatography-tandem mass spectrometry (LC-MS/MS).
The brain unbound fraction (FU brain) was calculated from the ratio of analyte/internal standard peak area ratios determined in buffer versus brain homogenate samples using equation (1), which accounts for the effect of tissue dilution on unbound fraction (Kalvass and Maurer, 2002):
[formula] where D is the dilution factor in brain homogenate and fu-diluted is the measured free fraction of diluted brain tissue. Results

[2] = biological target: T1, human Orexin type 2 receptors (Homo sapiens (Human), UniProt O43614); test: Scintillation Proximity Assay (SPA) binding assay, [3H]EMPA displacement, HEK-hOX2 membranes
T1 sequence (O43614 whole entry): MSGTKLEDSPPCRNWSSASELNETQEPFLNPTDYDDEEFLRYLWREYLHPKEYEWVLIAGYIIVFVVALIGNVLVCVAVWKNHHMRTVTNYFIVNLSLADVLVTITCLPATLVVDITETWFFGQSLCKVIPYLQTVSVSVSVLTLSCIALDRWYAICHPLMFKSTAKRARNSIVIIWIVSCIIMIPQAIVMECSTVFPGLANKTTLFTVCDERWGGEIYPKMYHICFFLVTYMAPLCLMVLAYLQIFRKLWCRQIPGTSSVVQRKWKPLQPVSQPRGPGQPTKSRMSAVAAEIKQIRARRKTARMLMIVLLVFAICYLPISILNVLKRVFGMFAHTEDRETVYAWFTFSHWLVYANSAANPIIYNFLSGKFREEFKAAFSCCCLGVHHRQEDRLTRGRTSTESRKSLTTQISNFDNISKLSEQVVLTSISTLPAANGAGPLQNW

[3] = biological target: T2, human Orexin type 1 receptors (Homo sapiens (Human), UniProt O43613); test: Scintillation Proximity Assay (SPA) binding assay, [3H]SB-674042 displacement, CHO-hOX1 membranes
T2 sequence (O43613 whole entry): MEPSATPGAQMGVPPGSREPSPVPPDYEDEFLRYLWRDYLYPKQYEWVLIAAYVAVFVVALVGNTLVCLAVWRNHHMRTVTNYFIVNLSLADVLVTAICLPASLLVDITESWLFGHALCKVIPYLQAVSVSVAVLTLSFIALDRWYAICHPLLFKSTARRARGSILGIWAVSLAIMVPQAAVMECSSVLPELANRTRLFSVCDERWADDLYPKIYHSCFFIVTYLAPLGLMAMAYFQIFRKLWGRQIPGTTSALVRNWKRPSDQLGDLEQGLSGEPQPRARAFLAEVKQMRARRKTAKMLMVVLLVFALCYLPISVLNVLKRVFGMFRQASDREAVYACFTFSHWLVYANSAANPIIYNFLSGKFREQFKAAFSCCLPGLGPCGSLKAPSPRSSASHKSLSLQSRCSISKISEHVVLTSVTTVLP

[4] = biological target: T2, human Orexin type 1 receptors; test: Intracellular calcium measurement (FLIPR), antagonism of Orexin-A at EC80 in CHO-hOX1 cells
[5] = biological target: T1, human Orexin type 2 receptors; test: Intracellular calcium measurement (FLIPR), antagonism of Orexin-A at EC80 in CHO-hOX2 cells

In the case of C[C@@H]1C2CC(C2)N(C(=O)c2cc(Cl)ccc2-n2nccn2)C1CNc1cnc(C(F)(F)F)cn1 (single isomer, unassigned) [Example 205, N-({(3R,4S) or (3S,4R)2-[5-chloro-2-(2H-1,2,3-triazol-2-yl)benozyl]-4-methyl-2-azabicyclo[3.1.1]heptan-3-yl}methyl)-5-(trifluoromethyl)pyrazin-2-amine], the fraction unbound at 5 h, 5 μM [1] is reported as 0.0089, the “OX2 pKi (SPA binding)” value ([2]; Table 2, [3H]EMPA 2 nM) is reported as 5.34 and the “OX1 pKi (SPA binding)” value ([3]; Table 2, [3H]SB-674042 2 nM) is reported as 8.59.
For C[C@@H]1C2CC(C2)N(C(=O)c2cc(F)ccc2-n2nccn2)C1CNc1cnc(C(F)(F)F)cn1 (single isomer, unassigned) [Example 223, N-{[(3R,4S) or (3S,4R)-2-[5-fluoro-2-(2H-1,2,3-triazol-2-yl)benzoyl]-4-methyl-2-azabicyclo[3.1.1]heptan-3-yl]methyl}-5-(trifluoromethyl)pyrazin-2-amine], the fraction unbound at 5 h, 5 μM [1] was 0.022, the “OX2 pKi (SPA binding)” value ([2]; Table 2, [3H]EMPA 2 nM) was 4.98 and the “OX1 pKi (SPA binding)” value ([3]; Table 2, [3H]SB-674042 2 nM) was 8.13.
With Cc1nc(C(=O)N2C3CC(C3)[C@H](C)C2COc2ccc(F)cc2)c(-c2ncccn2)s1 (single isomer, unassigned) [Example 115, (3R,4R) or (3S,4S)-3-[(4-fluorophenoxy)methyl]-4-methyl-2-[2-methyl-5-(pyrimidin-2-yl)-1,3-thiazole-4-carbonyl]-2-azabicyclo[3.1.1]heptane] the fraction unbound at 5 h, 5 μM [1] was 0.0151, the “OX2 pKi (SPA binding)” value ([2]; Table 2, [3H]EMPA 2 nM) was 5.93 and the “OX1 pKi (SPA binding)” value ([3]; Table 2, [3H]SB-674042 2 nM) was 8.5.
Cc1ccc(-c2ncccn2)c(C(=O)N2C3CC(C3)[C@H](C)[C@@H]2COc2ccc(F)cn2)n1 (single isomer, unassigned) [Example 81, (3S,4R or 3R,4S) 3-{[(5-fluoropyridin-2-yl)oxy]methyl}-4-methyl-2-[6-methyl-3-(pyrimidin-2-yl)pyridine-2-carbonyl]-2-azabicyclo[3.1.1]heptane] gave a Ki [4] of 9.77 nM and a Ki [5] of 58.9 nM.
For Cc1nc(C(=O)N2C3CC(C3)C(C)C2COc2ccc(F)cn2)c(-c2ccccc2)s1 (mixture of isomers) [Example 77, CIS/TRANS 3-{[(5-fluoropyridin-2-yl)oxy]methyl}-4-methyl-2-(2-methyl-5-phenyl-1,3-thiazole-4-carbonyl)-2-azabicyclo[3.1.1]heptane], the Ki [4] was 21.9 nM and the Ki [5] was greater than 1000 nM.
For Cc1ccc(-c2nccs2)c(C(=O)N2C(COc3ccc(F)cc3)CC3CC2C3)n1 (racemic) [Example 4], the Ki [4] was 5.75 nM and the Ki [5] was 162 nM.
Cc1ccc(-c2ncccn2)c(C(=O)N2C(CCOc3ccc(F)cc3)CC3CC2C3)c1 (single isomer, unassigned) [Example 42, (3S or 3R) 3-[2-(4-fluorophenoxy)ethyl]-2-[5-methyl-2-(pyrimidin-2-yl)benzoyl]-2-azabicyclo[3.1.1]heptane] gave a Ki [4] of 18.2 nM and a Ki [5] of 107 nM.
For Cc1ccc(-c2ncccn2)c(C(=O)N2C(COc3ccc(Cl)cc3)CC3CC2C3)c1 (centres unmarked) [Example 19], the Ki [4] was 91.2 nM and the Ki [5] was 977 nM.
Cc1ccc(-c2ncccn2)c(C(=O)N2C3CC(C3)[C@@H](C)[C@@H]2COc2ccc(F)cn2)n1 (single isomer, unassigned) [Example 82, (3S,4S or 3R,4R) 3-{[(5-fluoropyridin-2-yl)oxy]methyl}-4-methyl-2-[6-methyl-3-(pyrimidin-2-yl)pyridin-2-carbonyl]-2-azabicyclo[3.1.1]heptane] showed a Ki [4] of 10 nM and a Ki [5] of 2240 nM.
In the case of Cc1nc(C(=O)N2C3CC(C3)C(C)C2COc2nccc3ccccc23)c(-c2ccccc2)s1 (mixture of isomers) [Example 83], the Ki [4] is reported as 3.47 nM and the Ki [5] is reported as 46.8 nM.
With Cc1ccc(-c2ncccn2)c(C(=O)N2C(COc3ccc(F)cc3)CC3CC2C3)n1 (racemic) [Example 13] the Ki [4] was 7.76 nM and the Ki [5] was 170 nM.
Molecule Cc1ccc(-c2nccs2)c(C(=O)N2C(COc3ccc(F)cn3)CC3CC2C3)n1 (centres unmarked) [Example 31] has a Ki [4] of 97.7 nM and a Ki [5] of 776 nM.
Molecule Cc1nc(C(=O)N2C(COc3ccc(F)cc3)CC3CC2C3)c(-c2ccccc2)s1 (single isomer, unassigned) [Example 3, (3S or 3R) 3-[(4-fluorophenoxy)methyl]-2-(2-methyl-5-phenyl-1,3-thiazole-4-carbonyl)-2-azabicyclo[3.1.1]heptane] has a Ki [4] of 2.34 nM and a Ki [5] of 81.3 nM.
Molecule Cc1ccc(-c2ncccn2)c(C(=O)N2C3CC(C3)[C@@H](C)[C@H]2COc2ccc(F)cc2)c1 (single isomer, unassigned) [Example 71, (3S,4R or 3R,4S) 3-(4-fluorophenoxymethyl)-4-methyl-2-[5-methyl-2-(pyrimidin-2-yl)benzoyl]-2-azabicyclo[3.1.1]heptane] has a Ki [4] of 3.39 nM and a Ki [5] of 89.1 nM.
Work on Cc1nc(C(=O)N2C3CC(C3)C(C)C2COc2cnc3ccc(Cl)cc3n2)c(-c2ccccc2)s1 (mixture of isomers) [Example 84, CIS/TRANS 7-chloro-2-{[4-methyl-2-(2-methyl-5-phenyl-1,3-thiazole-4-carbonyl)-2-azabicyclo[3.1.1]heptan-3-yl]methoxy}quinoxaline] yielded a Ki [4] of 75.9 nM and a Ki [5] of 1860 nM.
Cc1ccc(-c2ncccn2)c(C(=O)N2C(COc3ccc(C(F)(F)F)cn3)CC3CC2C3)c1 (single isomer, unassigned) [Example 36, (3S or 3R) 2-{[5-methyl-2-(pyrimidin-2-yl)phenyl]carbonyl}-3-({[5-(trifluoromethyl)pyridin-2-yl]oxy}methyl)-2-azabicyclo[3.1.1]heptane] showed a Ki [4] of 67.6 nM and a Ki [5] of 200 nM.
Work on Cc1ccc(-c2nccs2)c(C(=O)N2C(COc3ccc(F)cn3)CC3CC2C3)c1 (single isomer, unassigned) [Example 26, (3S or 3R) 3-{[(5-fluoropyridin-2-yl)oxy]methyl}-2-{[5-methyl-2-(1,3-thiazol-2-yl)phenyl]carbonyl}-2-azabicyclo[3.1.1]heptane] yielded a Ki [4] of 18.2 nM and a Ki [5] of 182 nM.
Cc1nc(C(=O)N2C3CC(C3)[C@@H](C)[C@@H]2COc2ccc(F)cc2)c(-c2ccccc2)s1 (single isomer, unassigned) [Example 67, (3S,4S or 3R,4R) 3-(4-fluorophenoxymethyl)-4-methyl-2-(2-methyl-5-phenyl-1,3-thiazole-4-carbonyl)-2-azabicyclo[3.1.1]heptane] gave a Ki [4] of 1.38 nM and a Ki [5] of 562 nM.
In the case of Cc1ccc(-c2ncccn2)c(C(=O)N2C(COc3ccc(F)cc3)CC3CC2C3)c1 (single isomer, unassigned) [Example 17, (3S or 3R) 3-(4-fluorophenoxymethyl)-2-{[5-methyl-2-(pyrimidin-2-yl)phenyl]carbonyl}-2-azabicyclo[3.1.1]heptane], the Ki [4] is reported as 15.1 nM and the Ki [5] is reported as 355 nM.
With Cc1nc(C(=O)N2C(COc3ccc(F)cc3)CC3CC2C3)c(-c2ccccc2)s1 (racemic) [Example 1] the Ki [4] was 6.31 nM, the Ki [5] was 295 nM and the “OX2 pKi (SPA binding)” value ([2]; Table 1, [3H]EMPA 2 nM) was 6.97. For the same molecule, the “OX1 pKi (SPA binding)” value ([3]; Table 1, [3H]SB-674042 2 nM) was 8.14.
For Cc1nc(C(=O)N2C3CC(C3)C(C)C2COc2ccc(F)cc2)c(-c2ccccc2)s1 (mixture of isomers) [Example 64, CIS/TRANS 3-(4-fluorophenoxymethyl)-4-methyl-2-(2-methyl-5-phenyl-1,3-thiazole-4-carbonyl)-2-azabicyclo[3.1.1]heptane], the Ki [4] was 3.16 nM and the Ki [5] was 282 nM.
In the case of Cc1nc(C(=O)N2C(COc3ccc(F)cn3)CC3CC2C3)c(-c2ccccc2)s1 (centres unmarked) [Example 24], the Ki [4] is reported as 46.8 nM and the Ki [5] is reported as 759 nM.
Cc1ccc(-n2nccn2)c(C(=O)N2C(COc3ccc(F)cc3)CC3CC2C3)c1 (single isomer, unassigned) [Example 12, (3S or 3R) 3-(4-fluorophenoxymethyl)-2-{[5-methyl-2-(2H-1,2,3-triazol-2-yl)phenyl]carbonyl}-2-azabicyclo[3.1.1]heptane] gave a Ki [4] of 27.5 nM and a Ki [5] of 1050 nM.
Molecule Cc1ccc(-c2ncccn2)c(C(=O)N2C(COc3ccc(F)cn3)CC3CC2C3)n1 (single isomer, unassigned) [Example 22, (3S or 3R) 3-{[(5-fluoropyridin-2-yl)oxy]methyl}-2-{[6-methyl-3-(pyrimidin-2-yl)pyridin-2-yl]carbonyl}-2-azabicyclo[3.1.1]heptane] has a Ki [4] of 34.7 nM and a Ki [5] of 174 nM.
